We go through 18 compounds from patent publication US9957251B2 (Takeda Pharmaceutical Company Limited, priority 2014, dated 2018).

In general, inhibition refers to the change of the read-out against control, counted positive when it falls.

Experiment [1] deals with SW480 human colorectal cancer cells. In words: Antitumor efficacy in mice bearing SW480 human colorectal cancer xenograft. To be noted: Mus musculus, SW480, 336 h; 50 mg/kg, oral, 1 dose per day, 14 days; percent tumor growth relative to control group; read-out: T/C (%). The format is in vivo, BALB/c female nude mice. How it is done: The compound of the present invention was evaluated for its antitumor efficacy in mice bearing cancer derived from SW480 human colorectal cancer cells by the following method.
SW480 human colorectal cancer cells were transplanted into 6- to 7-week-old BALB/c female nude mice (CLEA Japan) by subcutaneous injection of 2.0×10^6 cells per mouse. At 7 to 14 days after the transplantation, the size of the engrafted tumor was measured, and the tumor volume was calculated according to the following formula. Tumor volume=major axis×minor axis×minor axis×(½)
Test subjects having an engrafted tumor with a tumor volume of approximately 100 mm^3 were selected and used in the experiment (6 subjects per group). A suspension of each test compound in a 0.5% methylcellulose solution (Wako Pure Chemical Industries) was orally administered to the mice for 14 days at the dose (mg/kg body weight, indicating the amount per dose) and the number of doses shown in Table 4. On the day before the start of the administration and the day before the completion of the administration, the tumor size was measured, and the tumor volume was calculated.
Percent tumor growth (T/C (%)) of the test compound administration group relative to the control administration group was calculated according to the following formula. T/C(%)=(tumor volume of the test compound administration group after the completion of the administration−tumor volume of the test compound administration group at the day before the start of the administration)/(tumor volume of the control administration group after the completion of the administration−tumor volume of the control administration group at the day before the start of the administration))×100
A general note: A xenograft is tissue or cells of one species grown in another, often human tumour cells in immunodeficient mice.

A further experiment concerns the target T1, CDK8/CycC (Homo sapiens, UniProt P49336).
T1 construct: purchased Carna Biosciences
The experiment in a line: CDK8 inhibitory activity (TR-FRET, Kinase Tracer-236 displacement). The format is binding. To be noted: 1 μM of the test compound; for inhibition at 1 µM: read-out: Percent inhibition of CDK8 activity (%); for Percent inhibition of CDK8 activity (%): 1 µM. The method, boiled down:
(§1)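 Binding assay measuring displacement of Kinase Tracer-236 (60 nM in the added mix) by compound, using Eu-cryptate anti-GST antibody with CDK8/CycC (84 ng/mL) or CDC2L6/CycC (87 ng/mL) solutions. After 1 h at room temperature, TR-FRET read at 615 and 665 nm (excitation 320 nm).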

A further experiment deals with T2, CDK19 (CDC2L6/CycC) (Homo sapiens, UniProt Q9BWU1).
T2 construct: purchased Carna Biosciences
T2 sequence (Q9BWU1 whole entry): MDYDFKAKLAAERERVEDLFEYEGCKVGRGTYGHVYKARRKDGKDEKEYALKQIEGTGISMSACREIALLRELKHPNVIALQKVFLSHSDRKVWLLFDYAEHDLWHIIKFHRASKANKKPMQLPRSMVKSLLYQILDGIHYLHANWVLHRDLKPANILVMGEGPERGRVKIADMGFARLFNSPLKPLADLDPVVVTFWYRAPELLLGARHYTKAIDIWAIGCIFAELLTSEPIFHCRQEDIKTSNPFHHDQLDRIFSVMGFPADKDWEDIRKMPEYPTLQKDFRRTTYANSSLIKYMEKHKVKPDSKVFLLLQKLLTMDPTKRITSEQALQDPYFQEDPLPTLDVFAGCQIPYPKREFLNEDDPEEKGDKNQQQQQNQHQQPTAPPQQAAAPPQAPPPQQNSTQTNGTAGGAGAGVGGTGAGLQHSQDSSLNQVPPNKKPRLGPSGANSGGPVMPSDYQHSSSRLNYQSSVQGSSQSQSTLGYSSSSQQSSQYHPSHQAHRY
T2 sequence (P24863 whole entry partner): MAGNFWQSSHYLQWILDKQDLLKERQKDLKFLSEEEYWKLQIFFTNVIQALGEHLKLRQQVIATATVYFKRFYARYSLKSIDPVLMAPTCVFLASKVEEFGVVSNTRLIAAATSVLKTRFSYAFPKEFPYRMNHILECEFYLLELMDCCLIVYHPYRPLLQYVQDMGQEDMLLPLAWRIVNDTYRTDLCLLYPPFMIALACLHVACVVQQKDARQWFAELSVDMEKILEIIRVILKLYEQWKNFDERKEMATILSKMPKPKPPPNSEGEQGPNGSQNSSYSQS
In words: CDK19 inhibitory activity (TR-FRET, Kinase Tracer-236 displacement). Format: binding. Particulars: 1 μM of the test compound; for inhibition at 1 µM: read-out: Percent inhibition of CDK19 activity (%); for Percent inhibition of CDK19 activity (%): 1 µM. In a few lines:
as §1
On the technique in general: In TR-FRET formats the signal depends on donor and acceptor labels being close together.

Experiment [2] relates to human multiple myeloma RPMI8226 cells. The experiment in a line: Inhibitory activity against human multiple myeloma RPMI8226 cell growth (CellTiter-Glo). Format: cell-based. Particulars: 1 μM of the test compound, cultured for 8 days; for inhibition at 1 µM: Homo sapiens, RPMI-8226, 192 h, read-out: Percent inhibition of RPMI8226 cell growth (%); for Percent inhibition of RPMI8226 cell growth (%): 1 µM. The method, boiled down: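 RPMI8226 cells (300/well) cultured 1 day at 37 °C, 5% CO2, then given compound at 1 μM for 8 days. ATP luminescence (CellTiter-Glo) read; percent inhibition relative to 0.1% DMSO wells.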
Background: In ATP-based viability assays light output follows the ATP content of the culture.

Molecules are shown by their SMILES. Structures can show the parent of a compound that is named as a salt.

T1 sequence (P49336 whole entry): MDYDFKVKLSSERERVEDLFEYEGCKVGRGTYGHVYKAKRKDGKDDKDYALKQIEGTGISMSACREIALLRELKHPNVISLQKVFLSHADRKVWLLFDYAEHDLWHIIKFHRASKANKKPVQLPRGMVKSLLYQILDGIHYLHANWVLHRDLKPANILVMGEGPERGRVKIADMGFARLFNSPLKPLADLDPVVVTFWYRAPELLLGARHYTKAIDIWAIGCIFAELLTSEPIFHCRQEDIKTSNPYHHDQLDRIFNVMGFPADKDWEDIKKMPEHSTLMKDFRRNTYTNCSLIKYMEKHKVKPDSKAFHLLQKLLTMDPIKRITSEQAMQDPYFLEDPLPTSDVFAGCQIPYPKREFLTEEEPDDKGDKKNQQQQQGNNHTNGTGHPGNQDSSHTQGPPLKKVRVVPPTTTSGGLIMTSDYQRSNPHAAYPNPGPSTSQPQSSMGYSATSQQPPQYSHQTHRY
T1 sequence (P24863 whole entry partner): as the sequence (P24863 whole entry partner) above

As for `O=C(/C=C/c1cnccc1-c1cnn(C2CC2)c1)Nc1ccc(CN2CCOCC2)cc1` [Example 97, (2E)-3-(4-(1-Cyclopropyl-1H-pyrazol-4-yl)pyridin-3-yl)-N-(4-(morpholin-4-ylmethyl)phenyl)acrylamide], the response vs control in vivo at 50 mg/kg in experiment [1] was found to be 37%. The inhibition at 1 µM at CDK8/CycC amounted to 92%; on CDK19 (CDC2L6/CycC), 102%; in experiment [2], 53%.
For `O=C(/C=C/c1cnccc1-c1cnn(C2CC2)c1)Nc1ccc(CN2CCOCC2)cc1F` [Example 194, (2E)-3-(4-(1-Cyclopropyl-1H-pyrazol-4-yl)pyridin-3-yl)-N-(2-fluoro-4-(morpholin-4-ylmethyl)phenyl)acrylamide] the same measures were 36%, 99%, 99% and 53%.
The matching figures for `Cn1cc(-c2ccncc2/C=C/C(=O)Nc2ccc3c(c2)CN(CC(F)(F)F)CC3)cn1` [Example 216, (2E)-3-(4-(1-Methyl-1H-pyrazol-4-yl)pyridin-3-yl)-N-(2-(2,2,2-trifluoroethyl)-1,2,3,4-tetrahydroisoquinolin-7-yl)acrylamide]: 43%, 102%, 100% and 59%.
For `O=C(/C=C/c1cncc(F)c1-c1cnn(C2CC2)c1)Nc1ccc(CN2CCOCC2)cc1F` [Example 273, (2E)-3-(4-(1-Cyclopropyl-1H-pyrazol-4-yl)-5-fluoropyridin-3-yl)-N-(2-fluoro-4-(morpholin-4-ylmethyl)phenyl)acrylamide] the same measures were 36%, 101%, 96% and 64%.
With `COC1CN(Cc2ccc(NC(=O)/C=C/c3cncc(F)c3-c3cnn(C4CC4)c3)c(F)c2)C1` [Example 343, (2E)-3-(4-(1-Cyclopropyl-1H-pyrazol-4-yl)-5-fluoropyridin-3-yl)-N-(2-fluoro-4-((3-methoxyazetidin-1-yl)methyl)phenyl)acrylamide], the inhibition at 1 µM at CDK8/CycC amounted to 103%; at CDK19 (CDC2L6/CycC), 96%; in experiment [2], 63%.
For `COC1CN(Cc2ccc(NC(=O)/C=C/c3cncc(F)c3-c3cnn(C4CC4)c3)cc2)C1` [Example 345, (2E)-3-(4-(1-Cyclopropyl-1H-pyrazol-4-yl)-5-fluoropyridin-3-yl)-N-(4-((3-methoxyazetidin-1-yl)methyl)phenyl)acrylamide] the same measures were 101%, 100% and 63%.
In the case of `CC(C)(F)Cc1ccc(NC(=O)/C=C/c2cncc(F)c2-c2cnn(C3CC3)c2)cc1` [Example 348, (2E)-3-(4-(1-Cyclopropyl-1H-pyrazol-4-yl)-5-fluoropyridin-3-yl)-N-(4-(2-fluoro-2-methylpropyl)phenyl)acrylamide], the inhibition at 1 µM is 99% on CDK8/CycC, 101% at CDK19 (CDC2L6/CycC) and 62% in experiment [2].
The matching figures for `Cn1cc(-c2c(F)cncc2/C=C/C(=O)Nc2ccc3c(c2)CN(CC(C)(F)F)C3)cn1` [Example 351, (2E)-N-(2-(2,2-difluoropropyl)-2,3-dihydro-1H-isoindol-5-yl)-3-(5-fluoro-4-(1-methyl-1H-pyrazol-4-yl)pyridin-3-yl)acrylamide]: 106%, 100% and 63%.
As to `Cn1cnc2ccc(-c3c(F)cncc3/C=C/C(=O)Nc3ccc4c(c3)CN(CC(F)(F)F)C4)cc21` [Example 357, (2E)-3-(5-fluoro-4-(1-methyl-1H-benzimidazol-6-yl)pyridin-3-yl)-N-(2-(2,2,2-trifluoroethyl)-2,3-dihydro-1H-isoindol-5-yl)acrylamide], the figures for the inhibition at 1 µM (on CDK8/CycC; at CDK19 (CDC2L6/CycC); in experiment [2]) were 101%, 96% and 69%, respectively.
The matching figures for `Cn1cnc2ccc(-c3c(F)cncc3/C=C/C(=O)Nc3ccc(CN4CC(F)(F)C4)cc3)cc21` [Example 358, (2E)-N-(4-((3,3-Difluoroazetidin-1-yl)methyl)phenyl)-3-(5-fluoro-4-(1-methyl-1H-benzimidazol-6-yl)pyridin-3-yl)acrylamide]: 87%, 101% and 67%.
For `Cn1cc(-c2ccncc2/C=C/C(=O)Nc2ccc(N3CC(F)(F)C3)cc2)cn1` [Example 363, (2E)-N-(4-(3,3-difluoroazetidin-1-yl)phenyl)-3-(4-(1-methyl-1H-pyrazol-4-yl)pyridin-3-yl)acrylamide] the same measures were 105%, 99% and 50%.
Regarding `O=C(/C=C/c1cnccc1-c1cnn(C2CC2)c1)Nc1ccc(CN2CC(F)C2)cc1` [Example 365, (2E)-3-(4-(1-Cyclopropyl-1H-pyrazol-4-yl)pyridin-3-yl)-N-(4-((3-fluoroazetidin-1-yl)methyl)phenyl)acrylamide], the inhibition at 1 µM on CDK8/CycC came to 107%; on CDK19 (CDC2L6/CycC), 99%; in experiment [2] it was 58%.
Turning to `O=C(/C=C/c1cnccc1-c1cnn(C2CC2)c1)Nc1ccc(CN2CC(F)(F)C2)cc1F` [Example 370, (2E)-3-(4-(1-cyclopropyl-1H-pyrazol-4-yl)pyridin-3-yl)-N-(4-((3,3-difluoroazetidin-1-yl)methyl)-2-fluorophenyl)acrylamide], the figures for the inhibition at 1 µM (on CDK8/CycC; on CDK19 (CDC2L6/CycC); in experiment [2]) were 105%, 74% and 51%, respectively.
On to `O=C(/C=C/c1cnccc1-c1cnn(C2CC2)c1)Nc1ccc(CN2CC(F)(F)C2)cc1` [Example 373, (2E)-3-(4-(1-Cyclopropyl-1H-pyrazol-4-yl)pyridin-3-yl)-N-(4-((3,3-difluoroazetidin-1-yl)methyl)phenyl)acrylamide sulfate], for which, at CDK8/CycC (sulfate), the “Percent inhibition of CDK8 activity (%)” value was 101%. Besides, the “Percent inhibition of CDK19 activity (%)” value at CDK19 (CDC2L6/CycC) (sulfate) is recorded as 101%. In experiment [2] (sulfate), the “Percent inhibition of RPMI8226 cell growth (%)” value was 70%.
Consider `O=C(/C=C/c1cnccc1-c1cnn(C2CC2)c1)Nc1ccc(CN2CC(F)(F)C2)cc1` [Example 374, (2E)-3-(4-(1-Cyclopropyl-1H-pyrazol-4-yl)pyridin-3-yl)-N-(4-((3,3-difluoroazetidin-1-yl)methyl)phenyl)acrylamide diphosphate], for which, on CDK8/CycC, the “Percent inhibition of CDK8 activity (%)” value is listed as 100%. Moreover, the “Percent inhibition of CDK19 activity (%)” value on CDK19 (CDC2L6/CycC) is recorded as 100%. In experiment [2], the “Percent inhibition of RPMI8226 cell growth (%)” value was 69%.
In the case of `O=C(/C=C/c1cnccc1-c1cnn(C2CC2)c1)Nc1ccc(CN2CC(F)(F)C2)cc1` [Example 375, (2E)-3-(4-(1-Cyclopropyl-1H-pyrazol-4-yl)pyridin-3-yl)-N-(4-((3,3-difluoroazetidin-1-yl)methyl)phenyl)acrylamide methanesulfonate], the “Percent inhibition of CDK8 activity (%)” value on CDK8/CycC (methanesulfonate) is on record as 102%. The “Percent inhibition of CDK19 activity (%)” value at CDK19 (CDC2L6/CycC) (methanesulfonate) stood at 101%. Besides, the “Percent inhibition of RPMI8226 cell growth (%)” value in experiment [2] (methanesulfonate) is on record as 70%.
For `O=C(/C=C/c1cnccc1-c1cnn(C2CC2)c1)Nc1ccc(CN2CC(F)(F)C2)cc1` [Example 376, (2E)-3-(4-(1-Cyclopropyl-1H-pyrazol-4-yl)pyridin-3-yl)-N-(4-((3,3-difluoroazetidin-1-yl)methyl)phenyl)acrylamide hemifumarate], the “Percent inhibition of CDK8 activity (%)” value on CDK8/CycC amounted to 99%. In addition, the “Percent inhibition of CDK19 activity (%)” value at CDK19 (CDC2L6/CycC) is reported as 100%. The “Percent inhibition of RPMI8226 cell growth (%)” value in experiment [2] was 70%.
For `O=C(/C=C/c1cnccc1-c1cnn(C2CC2)c1)Nc1ccc(CN2CC(F)(F)C2)cc1` [Example 377, (2E)-3-(4-(1-Cyclopropyl-1H-pyrazol-4-yl)pyridin-3-yl)-N-(4-((3,3-difluoroazetidin-1-yl)methyl)phenyl)acrylamide hemisuccinate] the same measures were 102%, 100% and 66%.
